One series addresses T1, human adenosine A1 (A1R) (Homo sapiens, UniProt P30542).
T1 construct: yeast alpha-factor (MFalpha1) prepro leader (N, cleaved yes); expressed in transfected cells; host or cells: Saccharomyces cerevisiae (strain CY12660 and related strains carrying plasmid p5095)
T1 sequence (P30542 1-326): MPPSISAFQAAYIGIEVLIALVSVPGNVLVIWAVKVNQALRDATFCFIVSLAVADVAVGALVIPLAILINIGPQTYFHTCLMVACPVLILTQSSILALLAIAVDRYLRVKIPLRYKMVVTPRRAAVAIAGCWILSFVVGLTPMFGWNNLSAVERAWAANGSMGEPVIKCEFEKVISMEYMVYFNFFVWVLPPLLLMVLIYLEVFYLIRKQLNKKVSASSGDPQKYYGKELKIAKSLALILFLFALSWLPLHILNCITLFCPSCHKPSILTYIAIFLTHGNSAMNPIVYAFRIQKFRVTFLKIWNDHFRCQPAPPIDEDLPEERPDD
The series is described as follows: Yeast β-Galactosidase reporter gene assay, inhibition of NECA-induced activity, strain CY12660. Format: cell-based. The settings on record: Table 10. (A reporter such as luciferase makes a cellular process visible.)

Series [1] concerns the target T2, human A2b receptor subtype (Homo sapiens, UniProt P29275).
T2 construct: expressed in transfected cells; host or cells: HEK293
T2 sequence (P29275 1-332): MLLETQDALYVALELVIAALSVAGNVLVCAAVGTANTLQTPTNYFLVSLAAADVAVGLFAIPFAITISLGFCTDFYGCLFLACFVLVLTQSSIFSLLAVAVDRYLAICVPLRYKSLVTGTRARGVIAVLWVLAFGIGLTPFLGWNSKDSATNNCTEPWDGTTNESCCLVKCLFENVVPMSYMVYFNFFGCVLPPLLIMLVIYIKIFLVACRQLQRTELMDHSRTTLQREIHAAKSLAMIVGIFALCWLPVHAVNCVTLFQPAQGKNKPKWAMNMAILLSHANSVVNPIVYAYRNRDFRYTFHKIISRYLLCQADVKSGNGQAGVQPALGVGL
The series is described as follows: Adenosine 2b receptor subtype competition radioligand binding, [3H]DPCPX, HEK293 membranes. The settings on record: for Ki: Table 14, read-out: Binding Data K1 (nM) A2B.

Series [2] deals with T3, human A2a receptor subtype (Homo sapiens, UniProt P29274).
T3 construct: expressed in transfected cells; host or cells: HEK-293 (Cadus clone #5)
The series is described as follows: Adenosine 2a receptor subtype competition radioligand binding, [3H]CGS-21680, HEK293 membranes. The settings on record: Table 13, in %; footnote 8: % activity @ 10 μM.

For series [3], the target named is T4, human A3 receptor subtype (Homo sapiens, UniProt P0DMS8).
T4 construct: expressed in transfected cells; host or cells: HEK293
T4 sequence (P0DMS8 1-318): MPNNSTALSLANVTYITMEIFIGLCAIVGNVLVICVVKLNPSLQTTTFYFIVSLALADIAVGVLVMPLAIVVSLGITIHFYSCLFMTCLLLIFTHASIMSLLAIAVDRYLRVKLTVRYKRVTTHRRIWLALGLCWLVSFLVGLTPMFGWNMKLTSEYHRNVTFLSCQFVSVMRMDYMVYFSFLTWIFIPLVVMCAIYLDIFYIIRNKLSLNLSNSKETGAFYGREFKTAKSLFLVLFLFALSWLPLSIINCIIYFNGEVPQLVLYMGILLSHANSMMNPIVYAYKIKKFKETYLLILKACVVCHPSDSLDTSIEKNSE
Kind of series: Adenosine 3 receptor competition radioligand binding, [125I]AB-MECA, HEK293 membranes. The settings on record: Table 14; read-out: Binding Data K1 (nM) A3.

Series [4] has as its target T5, human A1 adenosine receptor (Homo sapiens, UniProt P30542).
T5 sequence (P30542 1-326): T1 sequence (P30542 1-326)
The settings on record: reported value; cited from earlier work.

The target in series [5] is T6, human A1 receptor subtype (Homo sapiens, UniProt P30542).
T6 sequence (P30542 1-326): T1 sequence (P30542 1-326)
The settings on record: Table 13, in %; footnote 8: % activity @ 10 μM.

T3 sequence (P29274 whole entry): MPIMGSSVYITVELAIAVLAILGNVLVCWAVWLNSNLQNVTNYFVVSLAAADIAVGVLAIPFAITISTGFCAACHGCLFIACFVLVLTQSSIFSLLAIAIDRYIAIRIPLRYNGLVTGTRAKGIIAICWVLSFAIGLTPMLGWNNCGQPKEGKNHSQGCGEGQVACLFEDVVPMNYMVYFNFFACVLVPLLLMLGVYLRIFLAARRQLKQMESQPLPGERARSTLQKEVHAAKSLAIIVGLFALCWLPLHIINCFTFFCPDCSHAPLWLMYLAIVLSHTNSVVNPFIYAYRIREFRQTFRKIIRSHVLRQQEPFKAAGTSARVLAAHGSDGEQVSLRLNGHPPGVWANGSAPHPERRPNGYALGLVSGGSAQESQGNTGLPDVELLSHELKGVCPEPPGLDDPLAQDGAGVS

A word on the IC50: it is the concentration that gives 50% inhibition. Low values mean higher potency, high ones lower potency. In turn, `Cc1[nH]c2nc(-c3ccccc3)nc(NCCNC(=O)CCN)c2c1C` [Compound 1009] came in with an IC50 at human adenosine A1 (A1R) above 10000 nM.
`CC(=O)NCCNc1nc(-c2ccccc2)nc2[nH]c(COc3ccccc3)cc12` [Compound 1400, 4-(2-acetylaminoethyl)amino-6-phenoxymethyl-2-phenyl-7H-pyrrolo[2,3d]pyrimidine]: the Ki in series [1] came to 10.3 nM.
Consider `Cc1[nH]c2nc(-c3ccccc3)nc(N[C@H]3CC[C@H](O)CC3)c2c1C` [Compound 1305], for which the “% activity, A2b binding” value in series [1] (Table 13, in %, footnote 8: % activity @ 10 μM) was 30%.
The compound `Cc1[nH]c2nc(-c3ccccc3)nc(NCCNS(C)(=O)=O)c2c1C` [Compound 1007] yielded a half-maximal inhibitory concentration (IC50) against human adenosine A1 (A1R) above 10000 nM.
As to `CNC(=O)NCCCNc1nc(-c2ccccc2)nc2[nH]c(C)c(C)c12` [Compound 1310], the “% activity, A2a binding” value in series [2] is 76%.
Turning to `CC(=O)NCCNc1nc(-c2ccccc2)nc2[nH]c(COc3ccc(Cl)cc3)cc12` [Compound 1402, 4-(2-acetylaminoethyl)amino-6-(4-chlorophenoxy)methyl-2-phenyl-7H-pyrrolo[2,3d]pyrimidine], in series [3], the Ki was determined as 60 nM.
Turning to `Cc1[nH]c2nc(-c3ccccc3)nc(NCCN)c2c1C` [Compound 1000], the IC50 against human adenosine A1 (A1R) is above 10000 nM.
Turning to `CC(Cc1ccccc1)Nc1ncnc2c1ncn2[C@@H]1O[C@H](CO)[C@@H](O)[C@H]1O` (single isomer, unassigned; (-)) [R-PIA, (−)-N6-(2-phenylisopropyl)-adenosine], the reported affinity entry in series [4] was “approximately 50 nM”.
A word on the melting point: it is the temperature of the solid-liquid transition. As for `CC(=O)NCCNc1nc(-c2ccccc2)nc2[nH]c(COc3ccccc3)cc12` [(25), 4-(2-acetylaminoethyl)amino-6-phenoxymethyl-2-phenyl-7H-pyrrolo[2,3d]pyrimidine], the melting point was 196 to 197 °C.
Regarding `CC(=O)NCCNc1nc(-c2ccccc2)nc2[nH]c(COc3ccc(F)cc3)cc12` [Compound 1401, 4-(2-acetylaminoethyl)amino-6-(4-fluorophenoxy)methyl-2-phenyl-7H-pyrrolo[2,3d]pyrimidine], the Ki in series [1] is 8.8 nM.
As for `OC[C@H]1CCCN1c1nc(-c2ccncc2)nc2[nH]ccc12` [Compound 1601], the melting point was 210 to 220 °C (dec.).
On the same count and under the same terms, the value for `NC(=O)[C@H]1CCCN1c1nc(-c2ccncc2)nc2[nH]c(-c3ccccc3)cc12` [Compound 1609, 1-(6-Phenyl-2-pyridin-4-yl-7H-pyrrolo[2,3-d]pyrimidin-4-yl]-pyrrolidine-2-carboxylic acid amide] was 280 to 316 °C (dec.).
As for `Cc1[nH]c2nc(-c3ccccc3)nc(NCCNC(=O)C3(N)CC3)c2c1C` [Compound 1313], the “% activity, A2a binding” value in series [2] is on record as 65%. Further, in series [5], the “% activity, A1 binding” value came to 30%.

The values above are taken from patent publication US6664252B2, “4-aminopyrrolo[2,3-d]pyrimidine compounds specific to adenosine A2a receptor and uses thereof” (OSI Pharmaceuticals, Inc., priority 1999, dated 2003).
